Results: ChEMBL document CHEMBL4422697, “Structural Characterization of Cranberry Arabinoxyloglucan Oligosaccharides” (J Nat Prod, 2019)
Active and inactive are the calls of the source. The rule behind the calls is not given here.

Experiments:
Candida albicans = assay: Growth inhibition of Candida albicans ATCC 90028 at 50 ug/ml relative to control; format: organism-based; details: in vivo
Escherichia coli [1] = assay: Growth inhibition of Escherichia coli ATCC 35218 at 50 ug/ml relative to control; format: organism-based; details: in vivo
Pseudomonas aeruginosa = assay: Growth inhibition of Pseudomonas aeruginosa ATCC 27853 at 50 ug/ml relative to control; format: organism-based; details: in vivo
Staphylococcus aureus [2] = assay: Growth inhibition of methicillin-[…] Staphylococcus aureus ATCC 33591 at 50 ug/ml relative to control; format: organism-based; details: in vivo
[3] = test system: Mycobacterium intracellulare; assay: Growth inhibition of Mycobacterium intracellulare ATCC 23068 at 50 ug/ml relative to control; format: organism-based; details: in vivo
Escherichia coli [4] = assay: Antiadhesive activity against P-fimbriated Escherichia coli ATCC 700928 assessed as inhibition of bacterial adhesion to human HTB4 cells incubated for 30 mins in presence of [3H]uridine prior to infection measured after 1 hr by scintillation counting method; format: functional, organism-based
Cryptococcus neoformans = assay: Growth inhibition of Cryptococcus neoformans ATCC 90113 at 50 ug/ml relative to control; format: organism-based; details: in vivo
Leishmania donovani = assay: Growth inhibition of Leishmania donovani at 80 ug/ml relative to control; format: organism-based; details: in vivo
Pichia kudriavzevii = assay: Growth inhibition of Candida krusei ATCC 6258 at 50 ug/ml relative to control; format: organism-based; details: in vivo
Nakaseomyces glabratus = assay: Growth inhibition of Candida glabrata ATCC 90030 at 50 ug/ml relative to control; format: organism-based; details: in vivo
Staphylococcus aureus [5] = assay: Growth inhibition of Staphylococcus aureus ATCC 29213 at 50 ug/ml relative to control; format: organism-based; details: in vivo
MDA-MB-231 = assay: Cytotoxicity against human MDA-MB-231 cells assessed as reduction in cell viability at 10 to 100 uM after 48 hrs by sulforhodamine B assay; format: cell-based; details: mda-mb-231, 48 h
Aspergillus fumigatus = assay: Growth inhibition of Aspergillus fumigatus ATCC 204305 at 50 ug/ml relative to control; format: organism-based; details: in vivo
Plasmodium falciparum = assay: Growth inhibition of Plasmodium falciparum D6 at 15.9 ug/ml relative to control; format: organism-based; details: in vivo
T47D = assay: Cytotoxicity against human T47D cells assessed as reduction in cell viability at 10 to 100 uM after 48 hrs by sulforhodamine B assay; format: cell-based

SMILES | growth inhibition (GI) (Candida albicans) [%] | growth inhibition (GI) (Escherichia coli [1]) [%] | growth inhibition (GI) (Pseudomonas aeruginosa) [%] | growth inhibition (GI) (Staphylococcus aureus [2]) [%] | growth inhibition (GI) [3] [%] | inhibition (Escherichia coli [4]) | growth inhibition (GI) (Cryptococcus neoformans) [%] | growth inhibition (GI) (Leishmania donovani) [%] | growth inhibition (GI) (Pichia kudriavzevii) [%] | growth inhibition (GI) (Nakaseomyces glabratus) [%] | growth inhibition (GI) (Staphylococcus aureus [5]) [%] | Activity (MDA-MB-231) | growth inhibition (GI) (Aspergillus fumigatus) [%] | growth inhibition (GI) (Plasmodium falciparum) [%] | Activity (T47D)
OC[C@@H]1O[C@@H](O[C@H]2[C@@H](OC[C@H]3O[C@@H](O)[C@H](O)[C@@H](O)[C@@H]3O[C@@H]3O[C@H](CO)[C@@H](O[C@@H]4O[C@H](COC5OC[C@@H](O)[C@H](O)[C@H]5O[C@@H]5O[C@@H](CO)[C@H](O)[C@H]5O)[C@@H](O[C@@H]5O[C@H](CO)[C@@H](O)[C@H](O)[C@H]5O)[C@H](O)[C@H]4O)[C@H](O)[C@H]3O)OC[C@@H](O)[C@@H]2O)[C@H](O)[C@H]1O (single isomer, unassigned) | < 50 | < 50 | < 50 | < 50 | < 50 | inactive | < 50 | < 50 | < 50 | < 50 | < 50 | Non-Toxic | < 50 | < 50 | Non-Toxic
OC[C@@H]1O[C@@H](O[C@H]2[C@@H](OC[C@H]3O[C@@H](O)[C@H](O)[C@@H](O)[C@@H]3O[C@@H]3O[C@H](CO)[C@@H](O[C@@H]4O[C@H](COC5OC[C@@H](O)[C@H](O)[C@H]5O)[C@@H](O[C@@H]5O[C@H](CO)[C@@H](O)[C@H](O)[C@H]5O)[C@H](O)[C@H]4O)[C@H](O)[C@H]3O)OC[C@@H](O)[C@@H]2O)[C@H](O)[C@H]1O (single isomer, unassigned) | < 50 | < 50 | < 50 | < 50 | < 50 | inactive | < 50 | < 50 | < 50 | < 50 | < 50 | Non-Toxic | < 50 | < 50 | Non-Toxic
